Results taken from patent US12486254B2, “Uracil derivatives for stimulating read-through of premature termination codons” (Southern Research Institute, priority 2022, dated 2025).
Values joined by “and” are separate entries in the source; they are usually repeats but may differ in a detail not shown here. Identical values can stand only once.

Experiments:
W134X-CF#14 FRT = assay: Read-through of a premature termination codon, W134X-CF#14 FRT data, with G418; type: cell-based; settings: in presence of G418
Protocol: (§1) The compounds shown in Table 1 were evaluated for their ability to stimulate read-through of a premature termination codon, and their respective activities are shown in Tables 2 and 3 below.

G542X#10-HBE5x5 = assay: Read-through of a premature termination codon, G542X#10-HBE5x5 (Table 3); type: cell-based; settings: with G418
Protocol: as §1

Row | SMILES | EC50 (W134X-CF#14 FRT) | EC50 (G542X#10-HBE5x5)
1 | CCn1c(=O)c(C(=O)CNCc2ccccc2)c(N)n(Cc2ccccc2)c1=O [1.14] | 12.3 µM | ≥ 100 µM
2 | CCn1c(=O)c(C(=O)CN2CCCC2C(=O)OC)c(N)n(Cc2ccccc2)c1=O (stereo not shown) [1.12] | 46 µM | ≥ 100 µM
3 | CCn1c(=O)c(C(=O)CN2CCCCC2CN(C)C)c(N)n(Cc2ccc(F)cc2)c1=O (stereo not shown) [1.177] | 65.1 µM | ≥ 100 µM
4 | CCn1c(=O)c(C(=O)CNc2ccc(C(N)=O)cc2)c(N)n(Cc2ccc(F)cc2)c1=O [1.206] | 13 µM | 18.1 µM
5 | CCn1c(=O)c(C(=O)CN(CC(N)=O)C(C)C)c(N)n(Cc2ccc(F)cc2F)c1=O [1.149] | 3.2 µM | 41.7 µM
6 | CCn1c(=O)c(C(=O)CN2CCCCC2C(=O)N(C)C)c(N)n(Cc2cccs2)c1=O (stereo not shown) [1.113] | 5.79 µM | ≥ 100 µM
7 | CCn1c(=O)c(C(=O)CN2CCCCC2C(N)=O)c(N)n(Cc2cccs2)c1=O (stereo not shown) [1.112] | 3.46 µM | ≥ 100 µM
8 | CCn1c(=O)c(C(=O)CN2CCCCC2C(C)C)c(N)n(Cc2ccc(F)cc2)c1=O (stereo not shown) [1.175] | 8.49 µM | ≥ 100 µM
9 | CCn1c(=O)c(C(=O)CN2CCCCC2C(=O)N2CCN(C)CC2)c(N)n(Cc2ccccc2)c1=O (stereo not shown) [1.96] | 58.5 µM | ≥ 100 µM
10 | CCn1c(=O)c(C(=O)CNCC2CCCCO2)c(N)n(Cc2ccccc2)c1=O (stereo not shown) [1.8] | 166 µM | ≥ 100 µM
11 | CCn1c(=O)c(C(=O)CN2CCCCC2=O)c(N)n(Cc2ccc(F)cc2)c1=O [1.165] | ≥ 100 µM | ≥ 100 µM
12 | CCn1c(=O)c(C(=O)CN(CC(=O)N2CCCCC2)C(C)C)c(N)n(Cc2ccc(F)cc2)c1=O [1.176] | 1.63 µM | ≥ 100 µM
13 | Nc1c(C(=O)CN2CCCC[C@@H]2C(=O)N2CCCCC2)c(=O)n(Cc2ccc(F)cc2)c(=O)n1Cc1ccc(F)cc1 [1.152] | 3.13 µM | 25 µM
14 | CCn1c(=O)c(C(=O)CN(Cc2ncc[nH]2)C(C)C)c(N)n(Cc2ccccc2)c1=O [1.57] | 15.4 µM | ≥ 100 µM
15 | CCn1c(=O)c(C(=O)CN(C)Cc2ccc(C(=O)NC)cc2)c(N)n(Cc2ccccc2)c1=O [1.2] | 109 µM | ≥ 100 µM
16 | CCn1c(=O)c(C(=O)CN2CCOCC2C(N)=O)c(N)n(Cc2ccccc2)c1=O (stereo not shown) [1.53] | ≥ 100 µM | ≥ 100 µM
17 | CCn1c(=O)c(C(=O)CNc2cc(OC)c(OC)c(OC)c2)c(N)n(Cc2ccc(F)cc2)c1=O [1.183] | 25.7 µM | ≥ 100 µM
18 | CCOC(=O)C1CCCCN1CC(=O)c1c(N)n(Cc2ccccc2)c(=O)n(CC)c1=O (stereo not shown) [1.22] | 83.2 µM | ≥ 100 µM
19 | CCn1c(=O)c(C(=O)CN2CCCCC2c2nc(C)no2)c(N)n(Cc2ccccc2)c1=O (stereo not shown) [1.86] | 56.1 µM | ≥ 100 µM
20 | CCn1c(=O)c(C(=O)CN2CCC(c3ccccc3)C2)c(N)n(Cc2ccccc2)c1=O (stereo not shown) [1.3] | 22.7 µM | ≥ 100 µM

Row | SMILES | EC50 (W134X-CF#14 FRT) | EC50 (G542X#10-HBE5x5)
21 | CCn1c(=O)c(C(=O)CN2CCC(C)CC2C(N)=O)c(N)n(Cc2ccc(F)cc2)c1=O (stereo not shown) [1.131] | 4.7 µM | ≥ 100 µM
22 | CCn1c(=O)c(C(=O)CN2CCC[C@@H]2C(=O)OC)c(N)n(Cc2ccccc2)c1=O [1.24] | 23.1 µM | ≥ 100 µM
23 | CCn1c(=O)c(C(=O)CNC(C)C)c(N)n(Cc2ccc(F)cc2)c1=O [1.138, 6-amino-3-ethyl-1-[(4-fluorophenyl)methyl]-5-[2-(isopropylamino)acetyl]pyrimidine-2,4-dione] | 79.1 µM | ≥ 100 µM
24 | CCn1c(=O)c(C(=O)CN2CCCC[C@@H]2c2nccn2C)c(N)n(Cc2ccc(F)cc2)c1=O [1.190] | 3.26 µM | ≥ 100 µM
25 | NC(=O)C1CCCCN1CC(=O)c1c(N)n(Cc2ccc(F)cc2)c(=O)n(CC2CCC2)c1=O (stereo not shown) [1.140] | 6.34 µM | ≥ 100 µM
26 | NC(=O)[C@H]1CCCCN1CC(=O)c1c(N)n(Cc2ccc(F)cc2)c(=O)n(Cc2ccc(F)cc2)c1=O [1.47, (2R)-1-[2-[4-amino-1,3-bis[(4-fluorophenyl)methyl]-2,6-dioxo-pyrimidin-5-yl]-2-oxo-ethyl]piperidine-2-carboxamide] | 3.19 µM | 50 µM
27 | CCn1c(=O)c(C(=O)CN(Cc2ccccc2)C2CCCCC2)c(N)n(Cc2ccccc2)c1=O [1.30] | 67.5 µM | 90.5 µM
28 | CCn1c(=O)c(C(=O)CN2CCCC2)c(N)n(Cc2ccc(F)cc2)c1=O [1.194] | 29.7 µM | ≥ 100 µM
29 | CCn1c(=O)c(C(=O)CN(Cc2ncco2)C(C)C)c(N)n(Cc2ccccc2)c1=O [1.56] | ≥ 100 µM | ≥ 100 µM
30 | NC(=O)C1CCCCN1CC(=O)c1c(N)n(Cc2ccc(Cl)cc2)c(=O)n(Cc2ccc(Cl)cc2)c1=O (stereo not shown) [1.107] | 4.52 µM | 7.03 µM
31 | CCn1c(=O)c(C(=O)CN2CCCC[C@@H]2c2ncc[nH]2)c(N)n(Cc2ccc(F)cc2)c1=O [1.196] | 1.56 µM | ≥ 100 µM
32 | CCOC(=O)C1CCN(CC(=O)c2c(N)n(Cc3ccccc3)c(=O)n(CC)c2=O)CC1 [1.6] |  | ≥ 100 µM
33 | CCn1c(=O)c(C(=O)CNc2nc3ccccc3[nH]2)c(N)n(Cc2ccccc2)c1=O [1.29] | 11.7 µM | 62.3 µM
34 | CCn1c(=O)c(C(=O)CN2CCN(c3ncccn3)CC2)c(N)n(Cc2ccccc2)c1=O [1.4] | 99.9 µM | ≥ 100 µM
35 | NC(=O)C1CCCCN1CC(=O)c1c(N)n(-c2ccc(F)cc2)c(=O)n(Cc2ccccc2)c1=O (stereo not shown) [1.65] |  | ≥ 100 µM
36 | CCn1c(=O)c(C(=O)CNc2ccccc2C(N)=O)c(N)n(Cc2ccc(F)cc2)c1=O [1.207] | 35.7 µM | 26.2 µM
37 | CCn1c(=O)c(C(=O)CN2CCCC[C@@H]2C(=O)N2CCOCC2)c(N)n(Cc2ccc(F)cc2)c1=O [1.130] |  | ≥ 100 µM
38 | CCn1c(=O)c(C(=O)CN2CCCC[C@@H]2C(N)=O)c(N)n(Cc2cccc(C)n2)c1=O [2.8] |  | ≥ 30 µM
39 | CCn1c(=O)c(C(=O)CN2CCNC(=O)C2)c(N)n(Cc2ccc(F)cc2)c1=O [1.209] |  | ≥ 100 µM
40 | CCn1c(=O)c(C(=O)CN2CCCN(C)C2=O)c(N)n(Cc2ccc(F)cc2)c1=O [1.215] |  | ≥ 100 µM

Row | SMILES | EC50 (W134X-CF#14 FRT) | EC50 (G542X#10-HBE5x5)
41 | CCn1c(=O)c(C(=O)CN(CC(=O)N(C)C)C(C)C)c(N)n(Cc2ccccc2)c1=O [1.40] |  | ≥ 100 µM
42 | CCn1c(=O)c(C(=O)CN2CCCNC2=O)c(N)n(Cc2ccc(F)cc2)c1=O [1.212] |  | ≥ 100 µM
43 | CCn1c(=O)c(C(=O)CN2CCCc3ccc(C(N)=O)cc32)c(N)n(Cc2ccc(F)cc2)c1=O [1.224] |  | ≥ 100 µM
44 | CCn1c(=O)c(C(=O)CN2CCN(C)C(=O)C2)c(N)n(Cc2ccc(F)cc2)c1=O [1.216] |  | ≥ 100 µM
45 | CCn1c(=O)c(C(=O)CN2CCCC[C@@H]2C(=O)NCC2CC2)c(N)n(Cc2ccc(F)cc2)c1=O [1.174] |  | ≥ 100 µM
46 | CCn1c(=O)c(C(=O)CNC2CCC(=O)NC2=O)c(N)n(Cc2ccc(F)cc2)c1=O (stereo not shown) [1.226] |  | ≥ 100 µM
47 | CCn1c(=O)c(C(=O)CN2CCCC[C@@H]2C(=O)N2CCCCC2)c(N)n(Cc2ccc(F)cc2)c1=O [1.129] |  | ≥ 100 µM
48 | CCn1c(=O)c(C(=O)CN(C(C)C)C(C)(C)C(N)=O)c(N)n(Cc2ccc(F)cc2)c1=O [2.19] |  | ≥ 30 µM
49 | CCN(CC)C(=O)C1CCCN(CC(=O)c2c(N)n(Cc3ccccc3)c(=O)n(CC)c2=O)C1 (stereo not shown) [1.66] |  | ≥ 100 µM
50 | CCn1c(=O)c(C(=O)CN2CCCC[C@@H]2C(N)=O)c(N)n(Cc2ccc(F)cc2F)c1=O [2.11] |  | ≥ 30 µM and 18.2 µM
51 | CCn1c(=O)c(C(=O)CN2CCCC[C@@H]2C(=O)N(C)C)c(N)n(Cc2ccc(F)cc2)c1=O [1.126] |  | ≥ 100 µM
52 | CCN(CC)C(=O)[C@H]1CCCCN1CC(=O)c1c(N)n(Cc2ccc(F)cc2)c(=O)n(CC)c1=O [2.4] |  | ≥ 30 µM
53 | CCn1c(=O)c(C(=O)CN2CCCC[C@@H]2C(=O)NC)c(N)n(Cc2ccc(F)cc2)c1=O [2.6] |  | ≥ 30 µM
54 | CCn1c(=O)c(C(=O)CN2CCCCC2C(=O)N2CCOCC2)c(N)n(Cc2ccccc2)c1=O (stereo not shown) [1.87] |  | ≥ 100 µM
55 | CCn1c(=O)c(C(=O)CN2CCc3cccc(C(N)=O)c3C2)c(N)n(Cc2ccc(F)cc2)c1=O [1.222] |  | ≥ 100 µM
56 | CCOC(=O)CN(CC(=O)c1c(N)n(Cc2ccccc2)c(=O)n(CC)c1=O)C(C)C [1.18, ethyl 2-((2-(6-amino-1-benzyl-3-ethyl-2,4-dioxo-1,2,3,4-tetrahydropyrimidin-5-yl)-2-oxoethyl)(isopropyl)amino)acetate] |  | ≥ 100 µM
57 | CCn1c(=O)c(C(=O)CN2CCCC[C@@H]2C(N)=O)c(N)n(Cc2ccc(F)c(Cl)c2)c1=O [2.17] |  | ≥ 30 µM
58 | CCn1c(=O)c(C(=O)CNC(CN2CCCC2=O)c2ccccc2)c(N)n(Cc2ccc(F)cc2)c1=O (stereo not shown) [1.181] |  | ≥ 100 µM
59 | CN(C)C(=O)C1CCCCN1CC(=O)c1c(N)n(Cc2ccc(F)cc2)c(=O)n(Cc2ccc(F)cc2)c1=O (stereo not shown) [1.73] |  | 62.9 µM
60 | CCn1c(=O)c(C(=O)CNc2ccc(C)cc2)c(N)n(Cc2ccc(F)cc2)c1=O [1.227] |  | ≥ 100 µM
